One data set has as its target NAALADase (Homo sapiens, UniProt Q04609). Put plainly: In vitro inhibition of NAALADase activity. The data set is classed as biochemical. The note with it: for Ki: in vitro inhibition of NAALADase activity; for NAALADase inhibiting activity (in words): qualitative, compared with 2-(phosphonomethyl)pentanedioic acid. The procedure:
Various compounds of the present invention were tested for in vitro inhibition of NAALADase activity.

Data set [1] has as its system angiogenesis in the Matrigel™/bFGF gels. In words: In vivo assay of a continuous dosage of NAALADase inhibitors on angiogenesis (miniosmotic pumps, Matrigel/bFGF). Set-up: species or system C57B1 female mice. As to conditions: 13 days post injection. The procedure: Minipumps filled with vehicle (50 mM Hepes) were also implanted at this time. Twenty-four hours later, mice were each injected subcutaneously with 0.5 mL Matrigel™ and the 150 ng/mL of the angiogenic factor, basic FGF (bFGF). Thirteen days post Matrigel™/bFGF injection, the gels were recovered, fixed in formalin and sections were stained with Trichrome-Masson stain.

The subject of the next data set is mice. In words: In vivo toxicity of NAALADase inhibitors in mice. The note with it: for Survival Rate After 5 days (%): observed 5 consecutive days. The text has this: The mice were subsequently observed two times per day for 5 consecutive days. The survival rate at each dose level is provided below in TABLE II.
For data set [2], the system named is angiogenesis in Matrigel™ plugs. In words: In vivo assay of daily dosages of NAALADase inhibitors on angiogenesis (Matrigel plug with bFGF). As to conditions: 7 days post injection. Also noted: species or system C57B1 female mice. On the procedure:
C57B1 female mice age 8 to 10 weeks (5/group) were injected subcutaneously with 0.5 mL of Matrigel™, 150 ng/mL of the angiogenic factor basic FGF (bFGF) and with 0, 0.47 μM or 4.7 μM […] (PMPA). The injected Matrigel™ rapidly formed a gel. […] Seven days post Matrigel™ injection, Matrigel™ plugs were excised and histology was performed.
The concentrations of the daily dosages as well as the coinciding initial Matrigel™ plug compositions are provided below in TABLE IV.

Chain of NAALADase (Q04609 whole entry): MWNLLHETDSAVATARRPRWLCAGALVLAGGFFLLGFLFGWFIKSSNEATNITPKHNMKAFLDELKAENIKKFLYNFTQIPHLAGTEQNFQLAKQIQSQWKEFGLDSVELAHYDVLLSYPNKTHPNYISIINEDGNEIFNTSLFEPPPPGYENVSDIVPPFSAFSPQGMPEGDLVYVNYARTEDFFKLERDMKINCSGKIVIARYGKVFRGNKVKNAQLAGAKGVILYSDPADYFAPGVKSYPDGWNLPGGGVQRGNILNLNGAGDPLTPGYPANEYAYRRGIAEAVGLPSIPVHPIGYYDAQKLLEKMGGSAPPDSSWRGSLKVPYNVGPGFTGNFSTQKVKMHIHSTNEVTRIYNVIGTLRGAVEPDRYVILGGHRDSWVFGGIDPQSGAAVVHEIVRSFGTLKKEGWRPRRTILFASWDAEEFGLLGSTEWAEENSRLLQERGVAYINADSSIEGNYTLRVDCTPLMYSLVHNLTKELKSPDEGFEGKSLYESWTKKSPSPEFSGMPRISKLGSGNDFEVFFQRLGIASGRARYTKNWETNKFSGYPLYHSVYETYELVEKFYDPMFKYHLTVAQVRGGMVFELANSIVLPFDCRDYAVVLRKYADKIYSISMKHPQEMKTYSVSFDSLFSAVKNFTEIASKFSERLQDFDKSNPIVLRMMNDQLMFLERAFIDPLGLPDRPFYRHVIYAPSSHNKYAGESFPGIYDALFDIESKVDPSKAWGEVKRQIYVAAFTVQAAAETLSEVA

`O=C(O)CCC(CP(=O)(O)CNCc1ccccc1)C(=O)O` (stereo not drawn) displayed a Ki at NAALADase of 51.8 nM.

`O=C(O)CCC(CP(=O)(O)CN1C(=O)c2ccccc2C1=O)C(=O)O` (stereo not drawn) showed a Ki at NAALADase of 34.5 nM.

For `O=C(O)CCC(CP(=O)(O)CC(CCC(=O)O)C(=O)O)C(=O)O` (stereo not drawn), the Ki at NAALADase was 0.57 nM.

The compound `CCCCP(=O)(O)CC(CCC(=O)O)C(=O)O` (stereo not drawn) yielded a Ki at NAALADase of 114 nM.

As to `O=C(O)CCC(CP(=O)(O)Cc1cccc(C(F)(F)F)c1)C(=O)O` (stereo not drawn), on NAALADase, the Ki turned out to be 22.5 nM.

On to `CC(CP(=O)(O)CC(CCC(=O)O)C(=O)O)C(=O)O` (stereo not drawn), for which, at NAALADase, the inhibition constant Ki is 1.5 nM.

Turning to `O=C(O)CCC(CP(=O)(O)CCC(=O)O)C(=O)O` (stereo not drawn) [2-[[(2-carboxyethyl)hydroxyphosphinyl]-methyl]pentanedioic acid], on NAALADase, the inhibitory constant (Ki) is 1.89 ± 0.19 nM and the “NAALADase inhibiting activity (in words)” value is reported as “lower NAALADase inhibiting activity”.

Regarding `CC(=O)NCP(=O)(O)CC(CCC(=O)O)C(=O)O` (stereo not drawn), affinity at NAALADase was put at a Ki of 118 nM.

In the case of `O=C(O)CCC(CP(=O)(O)Cc1c(F)c(F)c(F)c(F)c1F)C(=O)O` (stereo not drawn), on NAALADase, the Ki was determined as 22.7 nM.

For the compound `O=C(O)CC(CP(=O)(O)O)C(=O)O` (stereo not drawn) [2-(phosphonomethyl)succinic acid], the “NAALADase inhibiting activity (in words)” value at NAALADase is reported as “much lower NAALADase inhibiting activity”.

`O=C(O)CCC(CP(=O)(O)CNC(=O)Nc1ccccc1)C(=O)O` (stereo not drawn): the affinity at NAALADase, expressed as Ki, was 75 nM.

For the compound `Cc1ccc(NCP(=O)(O)CC(CCC(=O)O)C(=O)O)cc1` (stereo not drawn), on NAALADase, the affinity corresponds to a Ki of 5.2 nM.

For `O=C(O)CCC(CP(=O)(O)Cc1ccccc1)C(=O)O` (stereo not drawn), on NAALADase, the affinity corresponds to a Ki of 34.1 nM.

Regarding `O=C(O)CCC(CP(=O)(O)c1ccccc1)C(=O)O` (stereo not drawn), the affinity on NAALADase, expressed as Ki, was 35.9 nM.

The compound `O=C(O)CCC(CP(=O)(O)CCCc1ccccc1)C(=O)O` (stereo not drawn) gave an inhibition constant Ki at NAALADase of 232 nM.

Take `O=C(O)CCC(CP(=O)(O)C(NCc1ccccc1)c1ccccc1)C(=O)O` (stereo not drawn): the affinity on NAALADase corresponds to a Ki of 313 nM.

Take `O=C(O)CCC(CP(=O)(O)O)C(=O)O` (stereo not drawn) [2-(phosphonomethyl)pentanedioic acid]: the “Angiogenic response in Matrigel™/bFGF gels” value is listed as “strong angiogenic response” in data set [1] (1 μg/day continuous by minipump), “significantly decreased angiogenesis” in data set [1] (10 μg/day continuous by minipump) and “significantly decreased angiogenesis” in data set [1] (100 μg/day continuous by minipump). The “Survival Rate After 5 days (%)” value with mice (dose 1 mg/kg), in the data set on mice (dose 5 mg/kg), in the data set with mice (dose 10 mg/kg), with mice (dose 30 mg/kg), in the data set with mice (dose 100 mg/kg) and in the data set on mice (dose 300 mg/kg) was 100% each time. Besides, the “Survival Rate After 5 days (%)” value with mice (dose 500 mg/kg) is given as 66.7%. Moreover, in the data set on mice (doses 1 to 500 mg/kg), the “Toxicity to mice (in words)” value is “non-toxic to mice”. Further, the “Angiogenic response in Matrigel™ plugs (histology)” value in data set [2] (3 mg/kg daily subcutaneous injection, 0.47 μM in Matrigel) is reported as “decreased neovasculature or angiogenesis”; in data set [2] (3 mg/kg daily subcutaneous injection, 0.47 μM in Matrigel, listed as PMPA), “decrease in blood vessels or angiogenesis”; in data set [2] (30 mg/kg daily subcutaneous injection, 4.7 μM in Matrigel), “decreased neovasculature or angiogenesis”; in data set [2] (30 mg/kg daily subcutaneous injection, 4.7 μM in Matrigel, listed as PMPA) it was “decrease in blood vessels or angiogenesis”. Further, the “NAALADase inhibiting activity (in words)” value at NAALADase is listed as “high NAALADase inhibiting activity”.

As for `O=C(O)CCC(CP(=O)(O)CCc1ccccc1)C(=O)O` (stereo not drawn), the Ki on NAALADase was 148 nM.

`COc1ccc(NCP(=O)(O)CC(CCC(=O)O)C(=O)O)cc1` (stereo not drawn) gave a Ki on NAALADase of 2.5 nM.

`O=C(O)CCC(CP(=O)(O)CC(CCC(=O)OCc1ccccc1)C(=O)OCc1ccccc1)C(=O)O` (stereo not drawn) showed a Ki at NAALADase of 12.7 nM.

What is called Ki is a dissociation constant, usually derived from enzyme kinetics or from competition with a known ligand.
